Experimental data as given in patent publication US12356984B2, “Paraquat formulation” (priority 2018, dated 2025).

Experiment: Compatibility (precipitation) of polyvinylalcohol-acetate copolymer with charged active ingredients
Format: physicochemical
Details: for Formulability as oil-in-water emulsion (EW): Mowiol 4-88/SPAN 40 and TWEEN 40 system; for Behaviour of polyvinylalcohol when formulated with the charged active ingredient: oil in water emulsion / solution of the active ingredient
Source text: One of the challenges faced when formulating pesticidal compositions is the compatibility of active ingredients with additional formulation ingredients, such as surfactants. This is especially a challenge when the active ingredient is highly charged.

Row | SMILES | Quantity at the maximum ratio of Mowiol 4-88 to glufosinate and water at which the copolymer does not precipitate (ammonium glufosinate / Mowiol 4-88 (20% w/w in water) / water 90.15% w/w) [% w/w] | Quantity at the maximum ratio of Mowiol 4-88 to glyphosate and water at which the copolymer does not precipitate (potassium glyphosate / Mowiol 4-88 (20% w/w in water) / water 93.48% w/w) [% w/w] | Formulability as oil-in-water emulsion (EW) | Behaviour of polyvinylalcohol when formulated with the charged active ingredient
1 | CP(=O)(O)CCC(N)C(=O)O.N (stereo not shown) [Ammonium glufosinate] | 8.49 |  |  | 
2 | O=C(O)CNCP(=O)([O-])O.[K+] [Potassium glyphosate] |  | 5.76 |  | 
3 | CP(=O)(O)CCC(N)C(=O)O (stereo not shown) [glufosinate] |  |  | cannot be formulated as an oil-in-water emulsion (EW) at a commercially acceptable concentration | precipitates out of solution
4 | O=C(O)CNCP(=O)(O)O [glyphosate] |  |  | cannot be formulated as an EW at a commercially acceptable concentration | precipitates out of solution
5 | C[n+]1ccc(-c2cc[n+](C)cc2)cc1 [paraquat] |  |  |  | readily dissolves
